Test results published in patent US20250312462A1, “PAK1 DEGRADERS AND METHODS OF USE THEREOF” (INSTITUTE FOR CANCER RESEARCH D/B/A THE RESEARCH INSTITUTE …, priority 2022, published 2025).

Columns and labels:
[1] = molecular target: OSR1 (Homo sapiens, UniProt O95747); assay: KINOMEscan; settings: read-out: Percent Control
Experimental: (§1) The kinase engagement assay (KINOMEscan®) was performed by DiscoverX assessing binding abilities toward a set of kinases.

[2] = molecular target: CAMK2G (Homo sapiens, UniProt Q13555); assay: KINOMEscan; settings: read-out: Percent Control
Experimental: as §1

[3] = molecular target: IRAK4 (Homo sapiens, UniProt Q9NWZ3); assay: KINOMEscan; settings: read-out: Percent Control
Experimental: as §1

[4] = molecular target: AKT1 (Homo sapiens, UniProt P31749); assay: KINOMEscan; settings: read-out: Percent Control
Experimental: as §1

[5] = molecular target: PAK4 (Homo sapiens, UniProt O96013); assay: Z'-LYTE FRET kinase inhibition assay; format: biochemical; design: purchased Invitrogen
Text: […]. […] […].

[6] = molecular target: RSK2(Kin.Dom.2-C-terminal) (Homo sapiens, UniProt P51812); assay: KINOMEscan; settings: read-out: Percent Control
Experimental: as §1

[7] = molecular target: CAMK2D (Homo sapiens, UniProt Q13557); assay: KINOMEscan; settings: read-out: Percent Control
CAMK2D, sequence (Q13557 whole entry): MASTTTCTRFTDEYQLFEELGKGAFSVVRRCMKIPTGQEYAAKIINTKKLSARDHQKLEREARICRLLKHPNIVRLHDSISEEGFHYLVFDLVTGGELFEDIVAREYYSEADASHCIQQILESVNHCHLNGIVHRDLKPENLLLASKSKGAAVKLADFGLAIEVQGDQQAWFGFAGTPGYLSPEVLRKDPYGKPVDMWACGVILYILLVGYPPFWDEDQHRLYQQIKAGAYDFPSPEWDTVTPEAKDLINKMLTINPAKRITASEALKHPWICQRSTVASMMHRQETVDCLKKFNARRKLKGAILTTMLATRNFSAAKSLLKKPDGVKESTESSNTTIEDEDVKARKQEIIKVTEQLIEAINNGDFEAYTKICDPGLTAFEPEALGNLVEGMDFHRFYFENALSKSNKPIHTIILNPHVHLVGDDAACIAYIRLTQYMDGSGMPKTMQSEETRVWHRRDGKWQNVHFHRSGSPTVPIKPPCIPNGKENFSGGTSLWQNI
Experimental: as §1

[8] = molecular target: NEK1 (Homo sapiens, UniProt Q96PY6); assay: KINOMEscan; settings: read-out: Percent Control
Experimental: as §1

[9] = molecular target: MLK2 (Homo sapiens, UniProt Q02779); assay: KINOMEscan; settings: read-out: Percent Control
Experimental: as §1

[10] = molecular target: ABL1(Y253F)-phosphorylated (Homo sapiens, UniProt P00519, Y253F); assay: KINOMEscan; settings: read-out: Percent Control
Experimental: as §1

[11] = molecular target: MAP4K2 (Homo sapiens, UniProt Q12851); assay: KINOMEscan; settings: read-out: Percent Control
Experimental: as §1

[12] = molecular target: TNNI3K (Homo sapiens, UniProt Q59H18); assay: KINOMEscan; settings: read-out: Percent Control
Experimental: as §1

[13] = molecular target: EGFR(T790M) (Homo sapiens, UniProt P00533, T790M); assay: KINOMEscan; settings: read-out: Percent Control
Experimental: as §1

[14] = molecular target: LATS2 (Homo sapiens, UniProt Q9NRM7); assay: KINOMEscan; settings: read-out: Percent Control
LATS2, sequence (Q9NRM7 whole entry): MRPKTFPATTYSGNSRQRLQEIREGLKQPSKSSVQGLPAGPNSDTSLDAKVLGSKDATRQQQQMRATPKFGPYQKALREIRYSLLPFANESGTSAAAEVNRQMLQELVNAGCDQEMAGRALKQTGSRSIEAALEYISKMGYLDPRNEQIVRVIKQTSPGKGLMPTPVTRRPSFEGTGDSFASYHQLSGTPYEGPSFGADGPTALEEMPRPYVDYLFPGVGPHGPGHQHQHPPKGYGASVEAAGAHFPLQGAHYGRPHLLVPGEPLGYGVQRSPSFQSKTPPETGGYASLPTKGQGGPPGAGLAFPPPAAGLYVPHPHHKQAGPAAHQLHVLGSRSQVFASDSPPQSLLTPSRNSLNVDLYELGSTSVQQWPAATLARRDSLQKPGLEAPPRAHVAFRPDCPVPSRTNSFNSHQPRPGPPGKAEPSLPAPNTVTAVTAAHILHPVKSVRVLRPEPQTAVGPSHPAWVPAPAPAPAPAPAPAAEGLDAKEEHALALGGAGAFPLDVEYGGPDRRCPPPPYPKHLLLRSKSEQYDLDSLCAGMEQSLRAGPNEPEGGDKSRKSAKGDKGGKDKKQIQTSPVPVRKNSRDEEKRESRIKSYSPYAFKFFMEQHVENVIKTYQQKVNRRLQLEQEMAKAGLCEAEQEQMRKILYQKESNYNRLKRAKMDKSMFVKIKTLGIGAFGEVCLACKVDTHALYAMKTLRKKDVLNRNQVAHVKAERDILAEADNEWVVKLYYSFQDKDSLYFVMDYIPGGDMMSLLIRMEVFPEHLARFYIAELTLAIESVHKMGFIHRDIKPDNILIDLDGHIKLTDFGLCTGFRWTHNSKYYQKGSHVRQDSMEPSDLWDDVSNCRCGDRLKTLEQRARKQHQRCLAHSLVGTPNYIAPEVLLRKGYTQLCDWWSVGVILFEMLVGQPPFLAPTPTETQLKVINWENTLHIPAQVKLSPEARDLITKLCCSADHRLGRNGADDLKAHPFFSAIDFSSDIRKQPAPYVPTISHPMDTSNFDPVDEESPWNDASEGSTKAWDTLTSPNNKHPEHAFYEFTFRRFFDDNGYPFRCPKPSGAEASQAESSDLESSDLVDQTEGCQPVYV
Experimental: as §1

[15] = molecular target: ASK1 (Homo sapiens, UniProt Q99683); assay: KINOMEscan; settings: read-out: Percent Control
Experimental: as §1

[16] = molecular target: TAOK2 (Homo sapiens, UniProt Q9UL54); assay: KINOMEscan; settings: read-out: Percent Control
TAOK2, sequence (Q9UL54 whole entry): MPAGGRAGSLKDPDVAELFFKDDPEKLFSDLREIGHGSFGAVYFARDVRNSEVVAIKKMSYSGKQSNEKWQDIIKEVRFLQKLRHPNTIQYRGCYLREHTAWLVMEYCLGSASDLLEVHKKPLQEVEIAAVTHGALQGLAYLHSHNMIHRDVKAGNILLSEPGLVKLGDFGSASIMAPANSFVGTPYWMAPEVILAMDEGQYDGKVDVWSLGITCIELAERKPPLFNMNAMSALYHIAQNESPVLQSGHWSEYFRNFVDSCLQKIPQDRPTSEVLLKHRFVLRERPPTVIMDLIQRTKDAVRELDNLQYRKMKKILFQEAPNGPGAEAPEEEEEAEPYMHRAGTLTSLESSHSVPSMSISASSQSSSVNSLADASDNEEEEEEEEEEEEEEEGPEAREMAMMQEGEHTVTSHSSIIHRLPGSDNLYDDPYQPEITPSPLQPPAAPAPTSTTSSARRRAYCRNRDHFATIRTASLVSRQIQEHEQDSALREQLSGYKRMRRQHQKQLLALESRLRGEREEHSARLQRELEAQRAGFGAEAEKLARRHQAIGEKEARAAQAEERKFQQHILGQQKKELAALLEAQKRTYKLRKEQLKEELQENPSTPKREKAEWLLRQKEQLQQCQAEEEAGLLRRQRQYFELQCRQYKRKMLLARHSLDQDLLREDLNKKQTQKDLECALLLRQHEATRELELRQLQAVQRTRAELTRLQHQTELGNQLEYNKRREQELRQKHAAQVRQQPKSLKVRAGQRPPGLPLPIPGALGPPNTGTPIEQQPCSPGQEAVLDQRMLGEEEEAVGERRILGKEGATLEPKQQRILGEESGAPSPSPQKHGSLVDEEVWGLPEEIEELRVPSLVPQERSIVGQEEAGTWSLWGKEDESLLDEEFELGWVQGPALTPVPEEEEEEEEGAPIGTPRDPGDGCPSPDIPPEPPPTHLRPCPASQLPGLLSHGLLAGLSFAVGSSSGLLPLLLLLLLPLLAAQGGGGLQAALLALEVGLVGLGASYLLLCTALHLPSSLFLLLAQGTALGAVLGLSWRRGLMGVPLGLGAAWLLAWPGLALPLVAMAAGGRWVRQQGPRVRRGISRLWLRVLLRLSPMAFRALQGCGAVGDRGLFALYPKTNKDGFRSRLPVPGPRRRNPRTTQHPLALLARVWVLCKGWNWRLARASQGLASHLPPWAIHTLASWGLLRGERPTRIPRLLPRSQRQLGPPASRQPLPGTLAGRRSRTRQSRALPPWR
Experimental: as §1

[17] = molecular target: T1, Nluc-PAK1 (Homo sapiens, UniProt Q13153+Q96SW2); assay: Nluc-PAK1 luciferase assay in HEK293 cells; format: cell-based
T1 construct: […]; expressed in transfected cells
T1 sequence (Q13153 whole entry): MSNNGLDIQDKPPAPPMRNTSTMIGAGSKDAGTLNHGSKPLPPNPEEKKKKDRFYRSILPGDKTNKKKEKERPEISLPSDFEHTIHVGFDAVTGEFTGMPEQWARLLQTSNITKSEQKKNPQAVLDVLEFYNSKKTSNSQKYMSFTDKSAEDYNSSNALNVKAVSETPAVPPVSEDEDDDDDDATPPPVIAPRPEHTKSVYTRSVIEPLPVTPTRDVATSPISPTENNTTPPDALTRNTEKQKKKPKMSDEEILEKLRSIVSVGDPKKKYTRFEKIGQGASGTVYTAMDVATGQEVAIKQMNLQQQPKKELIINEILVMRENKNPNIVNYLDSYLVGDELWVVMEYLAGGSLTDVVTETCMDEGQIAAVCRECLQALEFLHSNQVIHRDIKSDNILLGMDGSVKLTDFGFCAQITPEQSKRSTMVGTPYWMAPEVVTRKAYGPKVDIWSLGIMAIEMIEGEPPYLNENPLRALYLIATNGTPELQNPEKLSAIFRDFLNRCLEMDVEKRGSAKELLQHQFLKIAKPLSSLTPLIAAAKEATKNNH
T1 sequence (Q96SW2 whole entry): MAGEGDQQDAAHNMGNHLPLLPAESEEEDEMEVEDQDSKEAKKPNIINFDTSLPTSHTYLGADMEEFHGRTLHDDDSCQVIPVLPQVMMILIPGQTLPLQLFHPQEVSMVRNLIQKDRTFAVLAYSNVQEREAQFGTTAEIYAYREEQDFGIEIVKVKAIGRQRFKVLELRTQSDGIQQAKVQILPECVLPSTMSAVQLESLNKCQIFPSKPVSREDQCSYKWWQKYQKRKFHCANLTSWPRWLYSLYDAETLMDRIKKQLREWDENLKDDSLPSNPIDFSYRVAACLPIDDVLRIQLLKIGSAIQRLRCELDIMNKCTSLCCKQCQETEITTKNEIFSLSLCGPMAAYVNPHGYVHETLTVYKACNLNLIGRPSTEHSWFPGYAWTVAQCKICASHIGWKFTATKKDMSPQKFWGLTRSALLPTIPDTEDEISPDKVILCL
T1 sequence (Q16531 whole entry partner): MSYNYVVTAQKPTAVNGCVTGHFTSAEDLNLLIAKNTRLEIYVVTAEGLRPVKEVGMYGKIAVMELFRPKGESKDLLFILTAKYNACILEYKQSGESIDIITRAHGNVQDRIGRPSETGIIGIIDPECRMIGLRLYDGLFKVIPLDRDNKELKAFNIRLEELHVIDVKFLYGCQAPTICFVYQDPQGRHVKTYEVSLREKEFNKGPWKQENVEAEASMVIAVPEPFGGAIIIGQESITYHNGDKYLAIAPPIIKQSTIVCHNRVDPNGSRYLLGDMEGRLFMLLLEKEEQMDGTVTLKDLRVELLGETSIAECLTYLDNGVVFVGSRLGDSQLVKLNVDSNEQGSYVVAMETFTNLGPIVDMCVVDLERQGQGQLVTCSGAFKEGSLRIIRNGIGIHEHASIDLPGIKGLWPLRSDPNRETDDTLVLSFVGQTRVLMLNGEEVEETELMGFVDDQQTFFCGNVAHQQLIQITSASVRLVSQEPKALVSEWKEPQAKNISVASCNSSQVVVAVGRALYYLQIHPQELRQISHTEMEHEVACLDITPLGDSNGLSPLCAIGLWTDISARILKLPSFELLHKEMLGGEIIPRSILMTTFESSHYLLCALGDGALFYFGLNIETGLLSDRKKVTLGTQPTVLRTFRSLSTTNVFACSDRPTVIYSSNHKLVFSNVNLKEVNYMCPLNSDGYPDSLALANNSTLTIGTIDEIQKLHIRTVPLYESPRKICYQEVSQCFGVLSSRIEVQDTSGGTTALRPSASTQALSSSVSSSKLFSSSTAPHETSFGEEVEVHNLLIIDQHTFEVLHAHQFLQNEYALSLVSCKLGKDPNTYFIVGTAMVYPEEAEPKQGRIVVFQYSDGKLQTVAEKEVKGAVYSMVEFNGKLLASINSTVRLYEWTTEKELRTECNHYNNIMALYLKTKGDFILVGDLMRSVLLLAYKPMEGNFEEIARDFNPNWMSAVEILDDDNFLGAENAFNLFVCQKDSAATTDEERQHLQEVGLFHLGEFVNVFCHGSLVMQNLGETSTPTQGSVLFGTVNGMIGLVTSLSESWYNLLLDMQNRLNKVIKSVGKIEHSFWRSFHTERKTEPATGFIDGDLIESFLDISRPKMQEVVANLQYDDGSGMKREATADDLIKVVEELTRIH
Experimental: MCF7 ([…], CVCL_0031) were cultured in high-glucose DMEM medium (Gibco) supplemented with 10% fetal bovine serum (HyClone), 2 mM L-glutamine and 100 U/ml penicillin/streptomycin (Gibco). MOLT4 ([…], CVCL_0013) were cultured in RPMI 1640 medium (Gibco) supplemented with 10% fetal bovine serum and 2 mM L-glutamine. OVCAR3 ([…], CVCL_0465), Hey A8 ([…], CVCL_8878) and OMM1 ([…], CVCL_6939) were cultured in RPMI 1640 medium (Gibco) supplemented with 10% fetal bovine serum, 2 mM L-glutamine and 100 U/ml penicillin/streptomycin (Gibco). All cell lines were cultured at 37° C. in a humidified 5% CO2 incubator. HEK293 cells stably expressing Nluc-PAK1 were constructed by transfecting with the pFN31K Nluc-PAK1 expression vector (0.5 μg DNA per well) in 12-well plates using Lipofectamine™ 3000 (Invitrogen) according to the manufacturer's protocol. Transfected Nluc-PAK1 cells were cultured for 1 week in DMEM medium containing G418 (2 mg mL^−1) to select stable clones.
HEK293 cells stably expressing pFN31K-Nluc-PAK1 were assayed for luciferase activity according to the manufacturer's Nano-Glo® Live Cell Assay System protocol (Promega). In brief, 25 μl of Nano-Glo® Live Cell Reagent was added per well and the plate was gently mixed by hand, then placed in a 37° C. luminometer for 10 minutes.
To better quantify the effect of degrader treatment, HEK293 cells were transfected with an expression vector encoding nano-luciferase (Nluc)-tagged PAK1. The Nluc tag allows for luciferase-based quantitation of protein expression (England, et al. (2016) Bioconjug. Chem., 27:1175-1187). Nluc-PAK1 cells were treated with BJG-05-039 or its N-methylated analog, BJG-05-098, and PAK1 expression was assessed (FIG. 2D).

[18] = molecular target: TESK1 (Homo sapiens, UniProt Q15569); assay: KINOMEscan; settings: read-out: Percent Control
Experimental: as §1

[19] = molecular target: RET (Homo sapiens, UniProt P07949); assay: KINOMEscan; settings: read-out: Percent Control
Experimental: as §1

[20] = molecular target: HPK1 (Homo sapiens, UniProt Q92918); assay: KINOMEscan; settings: read-out: Percent Control
Experimental: as §1

[21] = molecular target: QSK (Homo sapiens, UniProt Q9Y2K2); assay: KINOMEscan; settings: read-out: Percent Control
Experimental: as §1

[22] = molecular target: T2, PFCDPK1(P. falciparum) (Plasmodium falciparum, UniProt P62344); assay: KINOMEscan; format: binding; settings: read-out: Percent Control
T2 construct: purchased DiscoverX

[23] = molecular target: KIT(D816H) (Homo sapiens, UniProt P10721, D816H); assay: KINOMEscan; settings: read-out: Percent Control
Experimental: as §1

[24] = molecular target: p38-beta (Homo sapiens, UniProt Q15759); assay: KINOMEscan; settings: read-out: Percent Control
Experimental: as §1

[25] = molecular target: ARK5 (Homo sapiens, UniProt O60285); assay: KINOMEscan; settings: read-out: Percent Control
Experimental: as §1

[26] = molecular target: ERK5 (Homo sapiens, UniProt Q13164); assay: KINOMEscan; settings: read-out: Percent Control
Experimental: as §1

[27] = molecular target: MELK (Homo sapiens, UniProt Q14680); assay: KINOMEscan; settings: read-out: Percent Control
Experimental: as §1

`O=C1CCC(N2C(=O)c3cccc(NCCCCCCCCNC(=O)N4CC[C@H](NC5=Nc6cc(F)ccc6N(CC(F)F)c6ccc(Cl)cc65)C4)c3C2=O)C(=O)N1` (stereo partly drawn) [BJG-05-039, (3S)-3-((2-Chloro-5-(2,2-difluoroethyl)-8-fluoro-5H-dibenzo[b,e][1,4]diazepin-11-yl)amino)-N-(8-((2-(2,6-dioxopiperidin-3-yl)-1,3-dioxoisoindolin-4-yl)amino)octyl)pyrrolidine-1-carboxamide] gave a remaining binding at 10 µM [1] of 100%, a remaining binding at 10 µM [2] of 51% and a remaining binding at 10 µM [3] of 100%. For the same molecule, the remaining binding at 10 µM [4] was 83%, the IC50 [5] was greater than 10 µM and the remaining binding at 10 µM [6] was 87%. It also gave a remaining binding at 10 µM [7] of 45%, a remaining binding at 10 µM [8] of 83% and a remaining binding at 10 µM [9] of 97%. It also gave a remaining binding at 10 µM [10] of 100%, a remaining binding at 10 µM [11] of 89% and a remaining binding at 10 µM [12] of 82%. For the same molecule, the remaining binding at 10 µM [13] was 97%, the remaining binding at 10 µM [14] was 100% and the remaining binding at 10 µM [15] was 73%. The remaining binding at 10 µM [16] was 93%, the “Reduction in PAK1 expression” value ([17]; 10 nM, HEK293 Nluc-PAK1 cells, 24 hours) was “approximately 70%” and the “Concentration of half-maximal degradation of PAK1” value ([17]; HEK293 Nluc-PAK1 cells) was “low nM concentrations”. The “Loss of the PAK1 protein” value ([17]; in the absence of drug efflux inhibitors) was 70%, the remaining binding at 10 µM [18] was 92% and the remaining binding at 10 µM [19] was 46%. The remaining binding at 10 µM [20] was 92%, the remaining binding at 10 µM [21] was 78% and the remaining binding at 10 µM [22] was 98%. The remaining binding at 10 µM [23] was 100%, the remaining binding at 10 µM [24] was 97% and the remaining binding at 10 µM [25] was 45%. The remaining binding at 10 µM [26] was 57% and the remaining binding at 10 µM [27] was 81%.
